Assay results taken from ChEMBL document CHEMBL1146911, “Synthesis and SAR of conformationally restricted inhibitors of soluble epoxide hydrolase” (Bioorg Med Chem Lett, 2006).

System: not listed separately
Test: AUC in dog at 0.3 mg/kg, po
Assay type: ADME, organism-based, Canis lupus familiaris
Set-up: dose 0.3 mg/kg, route oral
Conditions: plasma

AUC	Structure (SMILES)
0.617 µM·h	CC(=O)N1CCC(NC(=O)NC23CC4CC(CC(C4)C2)C3)CC1 [AR9281]
0.0517 µM·h	O=C(O)CCCCCCCCCCCNC(=O)NC12CC3CC(CC(C3)C1)C2
0.0102 µM·h	O=C(NC1CCN(C(=O)c2ccccc2)CC1)NC12CC3CC(CC(C3)C1)C2
0.0917 µM·h	CC(=O)N1CCC(CNC(=O)NC23CC4CC(CC(C4)C2)C3)CC1
0.055 µM·h	O=C(NC1CCN(C(=O)C(F)(F)F)CC1)NC12CC3CC(CC(C3)C1)C2
0.0055 µM·h	O=C(NCC1CCN(C(=O)c2ccccc2)CC1)NC12CC3CC(CC(C3)C1)C2
0.108 µM·h	CCC(=O)N1CCC(NC(=O)NC23CC4CC(CC(C4)C2)C3)CC1
0.0417 µM·h	CCCC(=O)N1CCC(NC(=O)NC23CC4CC(CC(C4)C2)C3)CC1
0.0783 µM·h	O=C(NC1CCN(C(=O)c2ccccn2)CC1)NC12CC3CC(CC(C3)C1)C2

Biological target: T1, Bifunctional epoxide hydrolase 2 (Homo sapiens, UniProt P34913)
T1 sequence (P34913 whole entry): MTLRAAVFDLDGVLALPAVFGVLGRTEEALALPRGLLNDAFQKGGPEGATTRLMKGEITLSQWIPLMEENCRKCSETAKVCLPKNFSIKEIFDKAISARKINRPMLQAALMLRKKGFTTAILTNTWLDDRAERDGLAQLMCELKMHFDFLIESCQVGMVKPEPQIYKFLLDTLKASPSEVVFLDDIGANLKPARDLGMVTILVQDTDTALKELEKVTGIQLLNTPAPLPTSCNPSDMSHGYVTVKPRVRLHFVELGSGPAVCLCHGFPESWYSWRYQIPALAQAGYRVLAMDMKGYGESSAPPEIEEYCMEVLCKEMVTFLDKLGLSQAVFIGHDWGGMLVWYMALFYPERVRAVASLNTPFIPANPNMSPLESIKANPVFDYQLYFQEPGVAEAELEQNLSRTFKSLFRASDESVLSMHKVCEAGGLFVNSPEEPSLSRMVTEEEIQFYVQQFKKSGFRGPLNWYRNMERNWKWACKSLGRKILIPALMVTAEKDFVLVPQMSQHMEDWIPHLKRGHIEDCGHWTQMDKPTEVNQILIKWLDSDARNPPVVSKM
Conditions: not given

IC50	Structure (SMILES)
5.4 nM	O=C(NCC1CCN(C(=O)c2cccnc2)CC1)NC12CC3CC(CC(C3)C1)C2
400 nM	O=C(NCC1CCN(C(=O)c2ccccc2C(=O)O)CC1)NC12CC3CC(CC(C3)C1)C2
43 nM	O=C(NCC1CCN(C(=O)c2cccc(C(=O)O)c2)CC1)NC12CC3CC(CC(C3)C1)C2
41 nM	O=C(O)CCCC(=O)N1CCC(CNC(=O)NC23CC4CC(CC(C4)C2)C3)CC1
1.7 nM	O=C(NC1CCN(C(=O)c2cccnc2)CC1)NC12CC3CC(CC(C3)C1)C2
7.3 nM	O=C(NCC1CCN(C(=O)c2ccncc2)CC1)NC12CC3CC(CC(C3)C1)C2
2.1 nM	O=C(NC1CCN(C(=O)c2ccncc2)CC1)NC12CC3CC(CC(C3)C1)C2
